Test systems include UACC-62; MCF7; NCI-H522; HT-29; NCI-H226; CAKI-1; A498; UACC-257; OVCAR-3; K562; MOLT-4; M14; SF-268; SK-MEL-28; COLO 205; UO-31; MDA-MB-231; DU-145; HCT-116.
Test in all cases: inhibition of tumour cell growth, NCI panel, 48 h

We go through ten molecules from ChEMBL document CHEMBL1201862, “PubChem BioAssay data set” (2004).

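Briefly, cells in 96-well plates were exposed to five compound concentrations for 48 h, and endpoints were estimated by linear interpolation. Abbreviation: GI50, concentration required for 50% inhibition of growth.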 The source made the active and inactive calls. Cut-off read from the data, not from the text of the source: active = GI50 up to about 1.1 µM and inactive = higher. Where only a bound is given, the exact number is not on record here.

Consider `Nc1nc(N)c2nn(-c3ccc(C(=O)O)cc3)nc2n1`, for which the GI50 in the experiment on UACC-62, in the experiment with MCF7, in the experiment on NCI-H522, in the experiment with HT-29, in the experiment with NCI-H226 and in the experiment on CAKI-1 was > 100 µM (inactive) each time. Moreover, the GI50 with A498, in the experiment on UACC-257, in the experiment with OVCAR-3, in the experiment on K562, in the experiment on MOLT-4 and with M14 was > 100 µM (inactive) throughout. The GI50 with SF-268, in the experiment on SK-MEL-28, in the experiment with COLO 205, with UO-31, in the experiment on MDA-MB-231 and in the experiment with DU-145 was > 100 µM (inactive) each time. Further, the GI50 in the experiment on HCT-116 was > 100 µM (inactive).

Take `COc1cc(C2c3cc4c(cc3OC(NNC(N)=S)C2C)OCO4)cc(OC)c1OC` (stereo not given): the GI50 with UACC-62 is 0.318 µM (active); in the experiment on MCF7, 0.457 µM (active); with NCI-H522 it was 0.303 µM (active); in the experiment on HT-29, 0.269 µM (active); in the experiment with NCI-H226 it was 0.721 µM (active); with CAKI-1, 0.54 µM (active). In addition, the GI50 is 0.191 µM (active) with A498; 1.93 µM (inactive) in the experiment with UACC-257; 0.349 µM (active) in the experiment with OVCAR-3; 0.242 µM (active) in the experiment with K562; 0.374 µM (active) in the experiment with MOLT-4; 0.351 µM (active) in the experiment on M14. The GI50 with SF-268 is 3.33 µM (inactive); with SK-MEL-28 it was 0.524 µM (active); in the experiment with COLO 205 it was 0.277 µM (active); with UO-31 it was 0.931 µM (active); with MDA-MB-231, 0.4 µM (active); in the experiment on DU-145, 4.17 µM (inactive). For the same molecule, the GI50 in the experiment with HCT-116 was 0.244 µM (active).

On to `COC1(CC[C@H](C)COC2OC(CO)C(O)C(O)C2O)O[C@H]2C[C@H]3[C@@H]4CC=C5C[C@@H](OC6OC(CO)C(O)C(OC7OC(CO)C(O)C(O)C7O)C6OC6OC(C)C(O)C(O)C6O)CC[C@]5(C)[C@H]4CC[C@]3(C)[C@H]2[C@@H]1C` (stereo not given in full), for which the GI50 in the experiment on UACC-62 was 3.7 µM (inactive); in the experiment with MCF7 it was 9.2 µM (inactive); with NCI-H522 it was 2.94 µM (inactive); in the experiment with HT-29, 4.57 µM (inactive); with NCI-H226 it was 6.49 µM (inactive); in the experiment on CAKI-1 it was 5.45 µM (inactive). For the same molecule, the GI50 was 17.8 µM (inactive) in the experiment with A498; 5.73 µM (inactive) in the experiment with UACC-257; 16.7 µM (inactive) in the experiment on OVCAR-3; 4.88 µM (inactive) in the experiment with K562; 3.15 µM (inactive) in the experiment with MOLT-4; 2.84 µM (inactive) with M14. Moreover, the GI50 in the experiment on SF-268 was 4.89 µM (inactive); in the experiment on SK-MEL-28, 2.31 µM (inactive); in the experiment with COLO 205 it was 4.08 µM (inactive); in the experiment with UO-31, 2.14 µM (inactive); in the experiment on MDA-MB-231, 3.7 µM (inactive); with DU-145, 2 µM (inactive). The GI50 in the experiment with HCT-116 is 4.5 µM (inactive).

With `CN1CCOC1(C)c1ccccc1` (stereo not given), the GI50 with UACC-62, in the experiment with MCF7, in the experiment on NCI-H522, with HT-29, in the experiment with NCI-H226 and in the experiment with CAKI-1 was > 100 µM (inactive) throughout. The GI50 in the experiment on A498, in the experiment with UACC-257, in the experiment on OVCAR-3, in the experiment on K562, with MOLT-4 and in the experiment on M14 was > 100 µM (inactive) each time. Further, the GI50 with SF-268, in the experiment on SK-MEL-28, in the experiment on COLO 205, with UO-31, in the experiment on MDA-MB-231 and in the experiment on DU-145 was > 100 µM (inactive) throughout. Also, the GI50 in the experiment on HCT-116 was > 100 µM (inactive).

In the case of `CC(NNC(=O)c1ccncc1)c1ccc(Cl)cc1Cl` (stereo not given), the GI50 in the experiment with UACC-62, in the experiment with MCF7, in the experiment on NCI-H522, in the experiment with HT-29, with NCI-H226 and with CAKI-1 was > 100 µM (inactive) each time. Further, the GI50 in the experiment with A498 is > 100 µM (inactive); in the experiment on UACC-257 it was > 100 µM (inactive); in the experiment with OVCAR-3 it was > 100 µM (inactive); in the experiment with K562, > 100 µM (inactive); in the experiment with MOLT-4, 83.8 µM (inactive); in the experiment with M14, > 100 µM (inactive). The GI50 was > 100 µM (inactive) in the experiment with SF-268; > 100 µM (inactive) in the experiment with SK-MEL-28; > 100 µM (inactive) with COLO 205; 38.9 µM (inactive) with UO-31; > 100 µM (inactive) with MDA-MB-231; > 100 µM (inactive) in the experiment with DU-145. The GI50 with HCT-116 is > 100 µM (inactive).

Consider `N=C(N)c1ccc2oc3ccc(C(=N)N)cc3c(=O)c2c1`, for which the GI50 is > 100 µM (inactive) in the experiment with UACC-62; 60.4 µM (inactive) in the experiment on MCF7; > 100 µM (inactive) in the experiment with NCI-H522; > 100 µM (inactive) in the experiment with HT-29; > 100 µM (inactive) with NCI-H226; > 100 µM (inactive) with CAKI-1. The GI50 in the experiment with A498, in the experiment on UACC-257, in the experiment on OVCAR-3, in the experiment on K562, with MOLT-4 and in the experiment on M14 was > 100 µM (inactive) in each case. For the same molecule, the GI50 with SF-268, with SK-MEL-28, in the experiment with COLO 205, in the experiment with UO-31, in the experiment on MDA-MB-231 and in the experiment on DU-145 was > 100 µM (inactive) in each case. The GI50 in the experiment with HCT-116 was > 100 µM (inactive).

Turning to `CCn1c(=N)sc2nc3ccccc3n2c1=O`, the GI50 is > 100 µM (inactive) with UACC-62; 9.48 µM (inactive) in the experiment on MCF7; > 100 µM (inactive) in the experiment with NCI-H522; > 100 µM (inactive) in the experiment on HT-29; > 100 µM (inactive) with NCI-H226; > 100 µM (inactive) in the experiment with CAKI-1. Further, the GI50 in the experiment on A498, in the experiment on UACC-257, in the experiment on OVCAR-3, with K562, in the experiment with MOLT-4 and with M14 was > 100 µM (inactive) in each case. For the same molecule, the GI50 in the experiment with SF-268 is > 100 µM (inactive); in the experiment with SK-MEL-28, > 100 µM (inactive); in the experiment with COLO 205, > 100 µM (inactive); in the experiment on UO-31, 14.9 µM (inactive); in the experiment with MDA-MB-231, > 100 µM (inactive); with DU-145, > 100 µM (inactive). The GI50 in the experiment with HCT-116 was > 100 µM (inactive).

As for `O=c1c2c3c(sc2nc2n1N=C(c1ccc(Br)cc1)CS2)CCCC3`, the GI50 in the experiment on UACC-62, in the experiment on MCF7, with NCI-H522, in the experiment with HT-29, in the experiment on NCI-H226 and in the experiment on CAKI-1 was > 100 µM (inactive) in each case. Besides, the GI50 in the experiment on A498, in the experiment with UACC-257, with OVCAR-3, in the experiment with K562, in the experiment on MOLT-4 and with M14 was > 100 µM (inactive) in each case. The GI50 with SF-268, in the experiment on SK-MEL-28, in the experiment on COLO 205, in the experiment with UO-31, in the experiment with MDA-MB-231 and in the experiment on DU-145 was > 100 µM (inactive) in each case. Besides, the GI50 in the experiment on HCT-116 was > 100 µM (inactive).

Take `O=C1CCSC(=S)N1c1ccc(Br)c(Cl)c1`: the GI50 is 23.6 µM (inactive) in the experiment with UACC-62; 17.9 µM (inactive) with MCF7; 21 µM (inactive) with NCI-H522; 16.1 µM (inactive) in the experiment with HT-29; 27.3 µM (inactive) in the experiment on NCI-H226; 29.6 µM (inactive) with CAKI-1. Further, the GI50 in the experiment on A498 is 22.2 µM (inactive); in the experiment with UACC-257, 19.9 µM (inactive); in the experiment on OVCAR-3, 37.6 µM (inactive); in the experiment with K562 it was 32.9 µM (inactive); with MOLT-4, 37.4 µM (inactive); in the experiment on M14 it was 58.1 µM (inactive). Moreover, the GI50 was 18.5 µM (inactive) in the experiment with SF-268; 17.7 µM (inactive) in the experiment with SK-MEL-28; 20.2 µM (inactive) with COLO 205; 30.2 µM (inactive) with UO-31; 29 µM (inactive) in the experiment on MDA-MB-231; 43.8 µM (inactive) in the experiment with DU-145. Moreover, in the experiment on HCT-116, the GI50 is 36.5 µM (inactive).

Consider `CC(C)(C)OC(=O)NCC(CNC(=O)OC(C)(C)C)C(N)=O`, for which the GI50 in the experiment with UACC-62, in the experiment with MCF7, with NCI-H522, in the experiment with HT-29, with NCI-H226 and with CAKI-1 was > 100 µM (inactive) each time. Further, the GI50 in the experiment with A498, in the experiment with UACC-257, with OVCAR-3, in the experiment on K562, in the experiment with MOLT-4 and in the experiment on M14 was > 100 µM (inactive) in each case. The GI50 in the experiment with SF-268, with SK-MEL-28, in the experiment with COLO 205, in the experiment with UO-31, in the experiment on MDA-MB-231 and in the experiment on DU-145 was > 100 µM (inactive) in each case. Further, the GI50 with HCT-116 was > 100 µM (inactive).
